According to US20130089562A1, “METHODS OF TREATING LIVER CONDITIONS USING NOTCH2 ANTAGONISTS” (priority 2011, published 2013):

What was measured:
[1] = test system: primary oval cells (liver progenitor cells); assay: Colony formation and proliferation of primary oval cell cultures on Sw-3T3 feeder fibroblasts; type: cell-based, mouse
Procedure: To identify the signals that regulate hepatocyte differentiation from liver progenitor cells, transcriptional profiling was performed on adult liver progenitors (oval cells) from mice fed a choline deficient, ethionine supplemented (CDE) diet (FIG. 1A; FIG. 5A). This CDE model is known in the art as a model of chronic liver disease. CDE is also a steatohepatitis model (NASH). Chronic CDE can also lead to hepatocellular carcinoma (HCC), thereby also serving as a model for HCC. To induce an oval cell response, 8-12 week-old female C57BL/6N mice (Charles River) were fed a choline deficient diet (20% Lard; Teklad TD.04523) supplemented with 0.15% (w/v) Ethionine in the drinking water (Akhurst et al., Hepatology 34(3):519 (2001)). Liver non-parenchymal cells were isolated according to the protocol of del Castillo (del Castillo et al., Am. J. Pathol., 172(5):1238 (2008)) with the addition of 0.04% Hyaluronidase (Sigma) to the in vitro dissociation step.
To elucidate the role of Notch signaling in liver regeneration, an in vitro culture system was developed. Cell cultures were established by culturing primary oval cells on Sw-3T3 fibroblasts (ATCC), arrested with Mitomycin C (Sigma), in High Glucose Dulbecco's Modified Eagle Medium (DMEM; Invitrogen) supplemented with 15% Fetal Calf Serum (Sigma), non-essential amino acids (Invitrogen), Glutamax (Invitrogen), and ITS (Invitrogen).

[2] = test system: Notch2 intracellular domain (ICD); assay: Notch2 signaling in cultured oval cells (Western blot for γ-secretase cleaved Notch2 ICD; Hes1 expression); type: cell-based, mouse; conditions: FIG. 2H
Description: The anti-activated Notch2 antibody (clone 40-2-7) was generated against the peptide VIMAKRKRKHGSLW, corresponding to amino acids 1697-1710 of the human Notch2 protein sequence (SEQ ID NO:73), coupled to KLH (YenZym Custom Antibodies, LLC). Splenocytes from a rabbit producing an antibody with the appropriate specificity were used to generate hybridomas (Epitomics, Inc.). Clone 40-2-7 was identified by screening the resulting rabbit monoclonal antibodies by immunoblotting and immunohistochemistry. This antibody recognizes both human (FIG. 7B, left panel) and mouse (FIG. 7B, right panel) active Notch2 at endogenous levels.
Progenitors cultured in the culture system maintained growth (FIG. 2A) and formed colonies consisting of small, tightly packed cells with a high nuclear-cytoplasmic ratio and a distinct raised edge (FIG. 2A, left panel). The cells within these colonies were uniformly EpCAM positive (FIG. 2A, right panel). […] Activated Notch2 was detected by Western blot analysis using a rabbit monoclonal antibody raised against the S3 cleaved form of the human Notch2 protein (FIG. 7B). […]
Notch2 signaling was active in cultured oval cells, as transcriptionally active Notch2 intracellular domain (ICD) could be detected using an antibody specific to the γ-secretase cleaved form of this receptor (FIG. 2H). […]

**Q.** C[C@H](NC(=O)Cc1cc(F)cc(F)c1)C(=O)N[C@H](C(=O)OC(C)(C)C)c1ccccc1 [DAPT, N—[N-(3,5-difluorophenacetyl)-1-alanyl]-S-phenylglycine t-butyl ester] was tested. Which progenitor cell proliferation ([1]; FIG. 2D) did it give?
**A.** The progenitor cell proliferation was “small increase”.

**Q.** And the “enhancement of colony formation” value ([1]; primary cultures treated with DAPT, FIG. 2B)?
**A.** Its value is “approximately ten-fold”.

**Q.** And the “appearance of γ-secretase cleaved (active) form of Notch2” value [2]?
**A.** Its value is “absent”.
